# Legend:
# Assay in all cases: relative viability (nuclei count vs DMSO), 5 days (fraction); higher = more cells survive
# [1] = compound: CS(=O)(=O)c1ccc(-c2cnc(N)c(C(=O)Nc3ccccc3)n2)cc1 [VE-821] + CC1(C)CCC(c2ccc(Cl)cc2)=C(CN2CCN(c3ccc(C(=O)NS(=O)(=O)c4ccc(N[C@H](CCN5CCOCC5)CSc5ccccc5)c(S(=O)(=O)C(F)(F)F)c4)cc3)CC2)C1 [Navitoclax] (partner 0.5 µM)
# Summary of the method: (§1)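 Relative viability is defined as nuclei in treated wells over nuclei in vehicle wells. Duplicate plates were run and medians reported. Lung cancer cell lines in 1536-well plates were dosed by pin tool one day after seeding, with one drug or with a fixed anchor-drug dose plus five library-drug doses (not always all listed) in √10 steps, and nuclei were counted after 5 days.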
# [2] = compound: N#CC[C@H](C1CCCC1)n1cc(-c2ncnc3[nH]ccc23)cn1 [Ruxolitinib] + COc1cccc2cc(-c3nc([C@H]4CC[C@H](C(=O)O)CC4)n4ncnc(N)c34)[nH]c12 [OSI-027] (partner 0.5 µM)
# Summary of the method: as §1
# [3] = compound: CS(=O)(=O)c1ccc(C(=O)Nc2ccc(Cl)c(-c3ccccn3)c2)c(Cl)c1 [Vismodegib] + O=C(c1cc(Cc2n[nH]c(=O)c3ccccc23)ccc1F)N1CCN(C(=O)C2CC2)CC1 [Olaparib] (partner 8 µM)
# Summary of the method: as §1
# [4] = compound: CS(=O)(=O)c1ccc(-c2cnc(N)c(C(=O)Nc3ccccc3)n2)cc1 [VE-821] + Cc1nc(NC(=O)N2CCC[C@H]2C(N)=O)sc1-c1ccnc(C(C)(C)C(F)(F)F)c1 [Alpelisib] (partner 2 µM)
# Summary of the method: as §1
cell line,measurement,setting,value
UMC-11,relative viability,[1]; first compound 0.08 µM,0.358
same,relative viability,[1]; first compound 0.253 µM,0.344
same,relative viability,[1]; first compound 0.8 µM,0.332
same,relative viability,[1]; first compound 2.53 µM,0.302
same,relative viability,[1]; first compound 8 µM,0.222
same,relative viability,[2]; first compound 0.08 µM,0.474
same,relative viability,[2]; first compound 0.253 µM,0.448
same,relative viability,[2]; first compound 0.8 µM,0.561
same,relative viability,[2]; first compound 2.53 µM,0.498
same,relative viability,[2]; first compound 8 µM,0.574
same,relative viability,[3]; first compound 0.08 µM,0.416
same,relative viability,[3]; first compound 0.253 µM,0.361
same,relative viability,[3]; first compound 0.8 µM,0.376
same,relative viability,[3]; first compound 2.53 µM,0.473
same,relative viability,[3]; first compound 8 µM,0.373
same,relative viability,[4]; first compound 0.08 µM,1.23
same,relative viability,[4]; first compound 0.253 µM,0.946
same,relative viability,[4]; first compound 0.8 µM,1.03
same,relative viability,[4]; first compound 2.53 µM,0.935
same,relative viability,[4]; first compound 8 µM,0.437
